pIC50: −log10 of the molar value. Like-named read-outs stand apart in the source and are kept apart here.
Key:
[1] = Body weight of treated tumor bearing mice (signs of toxicity); format: in vivo, mouse
Experimental: (§1) The in vivo anti-cancer efficacy of Compound (2) was assessed in tumor bearing mice using a tumor growth inhibition assay. Human breast tumor (MDA-435) cells were implanted by injection of a tumor cell suspension subcutaneously in the flank of a nude mouse. Treatment of the tumor with an experimental compound began after the tumor had been established (volume was approximately 100 mm^3). The animal then began a multiple injection schedule where the compound was administered orally. Tumors were measured two times a week. During the course of this assay, animals were monitored daily for signs of toxicity including body weight loss.
A dosing solution for compound administration was prepared by dissolving 1 gram of Compound (2) in 10 ml of acetone (HPLC grade), and sonicated for 5 minutes using 550 Sonic Dismembrator. 1.2 equivalents of 1 N HCl aqueous solution were added to the acetone solution which was then sonicated for 5 minutes. All solvent was then evaporated from the solution by using Speed Vac Plus SC 250 DDA over night. The dried powder was used for preparing the dosing solution of Compound (2). 1% Methyl cellulose (MC) vehicle was prepared by dissolving 1.0 gram of Methyl cellulose, 400 cps, U.S.P. (Spectrum Laboratory Products, Cat. # ME136) in 100 mL of H2O. This mixture was then stirred for 12 hours at room temperature to produce a clear 1% MC solution. […]

MES-SA/DX5 = test: In vitro anti-cancer activity against multi-drug resistant cancer cells, MTS assay; format: cell-based; settings: Homo sapiens; for IC50: MES-SA/DX5, Table 3, read-out: IC50 (uM) MES-SA/DX5; for pIC50: MES-SA/Dx5, MES-SA/DX-5, Table 2, read-out: IC50
Experimental: (§2) The cell lines were maintained in RPMI1640(GIBCO) supplemented with 10% FCS, 100 units/ml penicillin, 100 ug/ml streptomycin, and 2 mM L-glutamine. The cells were split every third day and diluted to a concentration of 2×10^5 cells/ml one day before experiment. All experiments were performed on exponentially growing cell culture. Cell densities were 2.5×10^4 cells/ml in all experiment.
(§3) A stock solution of Compound (1) was prepared by dissolving the compound at a concentration of 1 mM in 100% DMSO. Final concentrations were obtained by diluting the stock solution directly into the tissue culture medium. Cells were incubated with varying concentrations of the compounds for 72 hours and the IC50 was determined by MTS (i.e. […]) assay. IC50 stands for the concentration of compound required to inhibit 50% tumor cell growth.
(§4) In vitro activity was determined in two MDR (Multi Drug Resistant) human cancer cell lines. HL-60/TX1000 was isolated in vitro by subculturing HL-60 in progressively higher concentration of Taxol. HL-60/TX1000 cells over-express mdr-1 mRNA and p-glycoprotein, as determined by western blot and immunofluorescence labeling with antiPGP antibodies. The cell is cross-resistant to Taxol, Vincristine, Adriamycin, Etoposide and Doxorubicin. MES-SA/Dx5 was established in the presence of increasing concentrations of Doxorubicin. […] MES-SA/Dx5 was purchased from ATCC.
(§5) The procedure for culturing the cells and assaying cancer cell growth inhibition were as described in Example 12.
(§6) The protocol described in Examples 12-13 was used to assay inhibition by Compound (2)-(12) on the growth of the multidrug resistant cancer cell line MES-SA/DX5 and HL-60/TX1000.

HL-60/TX1000 = test: as above; format: cell-based; settings: Homo sapiens, HL60/TX1000; for IC50: HL-60/TX1000, Table 3, read-out: IC50 (uM) HL-60/TX1000; for pIC50: HL-60/TX1000, Table 2, read-out: IC50
Experimental: as §2, §3, §4, §5, §6

[2] = tested on: human breast tumor (MDA435); test: Tumor growth inhibition assay, human breast tumor (MDA435) xenograft model; format: in vivo, mouse
Experimental: as §1
A supplemented media was prepared from 50% DMEM/Dulbecco Modified Eagle Medium (High Glucose), 50% RPMI 1640, 10% FBS/Fetal Bovine Serum (Hybridoma Tested; Sterile Filtered), 1% L-Glutamine, 1% Penicillin-Streptomycin, 1% MEM Sodium Pyruvate, 1% MEM Non-Essential Amino Acids. […]
The flask was washed with 10 ml of sterile room temperature phosphate buffered saline (PBS). […] The supernatant was aspirated and the cell pellet was resuspended in 10 ml of supplemented media and the cells were counted. […]
The above procedure for trypsinizing and centrifuging the cells were followed. The supernatant was aspirated and the cell pellet was resuspended in 10 ml of sterile PBS and the cells were counted. […]

MES-SA = test: In vitro anti-cancer activity, MTS assay, 72 hours; format: cell-based; settings: Homo sapiens
Experimental: (§7) The in vitro activity of the compounds was determined in the following seven human cancer cell lines. MDA435 (human breast cancer), MIP10 (human colon cancer), HL-60 (human myeloid leukemia), U937 (human leukemia), p388 (murine leukemia), DU-145 (human prostate cancer), MES-SA (human uterine sarcoma) were obtained from ATCC (American Type of Culture Collection).
as §2, §3

HL-60 = test: In vitro anti-cancer activity, MTS assay, 72 hours; format: cell-based; settings: Homo sapiens, HL-60, 72 hours
Experimental: as §7, §2, §3

H2 = test: In vitro anti-cancer activity, MTS assay, 72 hours; format: cell-based; settings: Homo sapiens, H2, 72 hours
Experimental: as §7, §2, §3

DU-145 = test: In vitro anti-cancer activity, MTS assay, 72 hours; format: cell-based; settings: Homo sapiens, DU-145, 72 hours
Experimental: as §7, §2, §3

MDA-435 = test: In vitro anti-cancer activity, MTS assay, 72 hours; format: cell-based; settings: Homo sapiens, MDA435, MDA-435, 72 hours
Experimental: as §7, §2, §3

A549 = test: In vitro anti-cancer activity, MTS assay, 72 hours; format: cell-based; settings: Homo sapiens, A549, 72 hours
[3] = tested on: MDR cell lines (MES-SA/DX5, HL-60/TX1000); test: In vitro anti-cancer activity, summary over both MDR cell lines; format: cell-based, human
Experimental: as §2, §3
In vitro activity was determined in two MDR (Multi Drug Resistant) human cancer cell lines. HL-60/TX1000 was isolated in vitro by subculturing HL-60 in progressively higher concentration of Taxol. HL-60/TX1000 cells over-express mdr-1 mRNA and p-glycoprotein, as determined by western blot and immunofluorescence labeling with antiPGP antibodies. The cell is cross-resistant to Taxol, Vincristine, Adriamycin, Etoposide and Doxorubicin. […]

seven cancer cell lines = test: In vitro anti-cancer activity, summary over seven cancer cell lines; format: cell-based; settings: range over the seven cell lines of Table 1; read-out: IC50 against seven cancer cell lines
Experimental: as §7, §2, §3

p388 = test: In vitro anti-cancer activity, MTS assay, 72 hours; format: cell-based, murine; settings: Mus musculus, p388, 72 hours
Experimental: as §7, §2, §3

SMILES | IC50 (MES-SA/DX5) [µM] | IC50 (HL-60/TX1000) [µM] | further results
N#Cc1ccc(Cn2cc(C(=O)c3nc4cnccc4[nH]3)c3ccccc32)cc1 [Compound 2] | 0.05 | 0.05 | change in body weight ([1]; mice treated with Compound (2)): Little or no change in body weight; loss of weight ([1]; nude mice, 25 mg/kg orally, 3 times a week for 3 weeks): less than 5%; tumor growth inhibition ([2]; MDA435 in nude mice, 25 mg/kg orally, 3 times a week for 3 weeks): significantly inhibits tumor growth; reduction of the volume of tumors ([2]; MDA435 tumors in nude mice, administered orally): greater than 50%
O=C(c1nc2cnccc2[nH]1)c1cn(Cc2ccc(Cl)c(Cl)c2)c2ccccc12 [Compound 3] | 0.05 | 0.04 | –
Cc1ccc(Cn2cc(C(=O)c3nc4cnccc4[nH]3)c3ccccc32)cc1 [Compound 4] | 0.05 | 0.05 | –
Cc1cccc2c(C(=O)c3nc4ccncc4[nH]3)cn(Cc3ccc(Cl)cc3)c12 [Compound 5] | 0.5 | 0.1 | –
O=C(c1nc2ccncc2[nH]1)c1cn(Cc2ccc(Cl)cc2)c2cc(F)ccc12 [Compound 6] | 0.05 | 0.05 | –
O=C(c1nc2ccncc2[nH]1)c1cc(Cc2ccc(Cl)cc2)n2ccccc12 [Compound 7] | 0.5 | 0.05 | –
COC(=O)c1cnc(C(=O)c2cn(Cc3ccc(Cl)cc3)c3ccccc23)[nH]1 [Compound 8, 2-[1-(4-chloro-benzyl)-1H-indole-3-carbonyl]-3H-imidazole-4-carboxylic acid methyl ester] | 0.1 | 0.05 | –
O=C(c1nc(-c2ccccn2)c[nH]1)c1cn(Cc2ccc(Cl)cc2)c2ccccc12 [Compound 9, [1-(4-Chloro-benzyl)-1H-indol-3-yl]-(4-pyridin-2-yl-1H-imidazol-2-yl)-methanone] | 0.5 | 0.5 | –
O=C(c1cccnc1)c1c[nH]c(C(=O)c2cn(Cc3ccc(Cl)cc3)c3ccccc23)n1 [Compound 10, [1-(4-Chlorobenzyl)-1H-indol-3-yl]-[4-(pyridine-3-carbonyl)-1H-imidazol-2-yl]methanone] | 0.5 | 0.5 | –
CCC(=O)c1c[nH]c(C(=O)c2cn(Cc3ccc(Cl)cc3)c3ccccc23)n1 [Compound 11] | 0.5 | 0.5 | –
CC1(C)COC(c2cnc(C(=O)c3cn(Cc4ccc(Cl)cc4)c4ccccc34)[nH]2)=N1 [Compound 12, [1-(4-chlorobenzyl)-1H-indol-3-yl]-[5-(4,4-dimethyl-4,5-dihydro-oxazol-2-yl)-1H-imidazo 1-2-yl]-methanone] | 0.5 | 0.5 | –
O=C(c1nc2cnccc2[nH]1)c1cn(Cc2ccc(Cl)cc2)c2ccccc12 [Compound (1)] | – | – | pIC50 (MES-SA): 8.00; pIC50 (HL-60): 7.30; pIC50 (H2): 7.30; pIC50 (DU-145): 7.30; pIC50 (MDA-435): 7.30; pIC50 (A549): 7.30; pIC50 (MES-SA/DX5): 7.30; pIC50 (HL-60/TX1000): 7.30; anti-cancer activity against MDR cancer cell lines ([3]; MES-SA/DX5 and HL-60/TX1000, in words): high anti-cancer activity; pIC50 (seven cancer cell lines): 7.30 to 8.00; pIC50 (p388): 7.30
CC(=O)O[C@H]1C(=O)[C@@]2(C)[C@H]([C@H](OC(=O)c3ccccc3)[C@]3(O)C[C@H](OC(=O)[C@H](O)[C@@H](NC(=O)c4ccccc4)c4ccccc4)C(C)=C1C3(C)C)[C@]1(OC(C)=O)CO[C@@H]1C[C@@H]2O [Taxol, reference compound] | – | – | pIC50 (MES-SA/DX5): 5.30; pIC50 (HL-60/TX1000): 5.30
CC[C@]1(O)C[C@H]2CN(CCc3c([nH]c4ccccc34)[C@@](C(=O)OC)(c3cc4c(cc3OC)N(C=O)[C@H]3[C@@](O)(C(=O)OC)[C@H](OC(C)=O)[C@]5(CC)C=CCN6CC[C@]43[C@@H]65)C2)C1 [Vincristine, reference compound] | – | – | pIC50 (MES-SA/DX5): 6.00; pIC50 (HL-60/TX1000): 5.30; pIC50 ([3]; Homo sapiens, MES-SA/DX5 and HL-60/TX1000, text summary of Tables 2 and 3, read-out: IC50 against the MDR cell lines): 5.30 to 6.00

— patent US20040186129A1, “2-Aroylimidazole compounds for treating cancer” (priority 2001, published 2004)
